Patent US12391648B2, “Pyridyloxy thioester derivative and preparation method therefor, herbicidal composition, and application” (Qingdao Kingagroot Chemical Compound Co., Ltd., priority 2018, dated 2025)

Tests used:
Experiment in all cases: Post-emergence test experiment (Table 3, 1000 g/ha)
Type in all cases: in vivo
Details in all cases: post-emergence spray, after 3 weeks, fresh weight inhibition
Abutilon theophrasti = test system: Abutilon theophrasti
From the text: (§1) The activity level standard of harmful plants destruction (i. e. growth inhibition rate) is as follows: • Level 5: the growth inhibition rate is greater than 85%; • Level 4: the growth inhibition rate is equal to or greater than 60% and less than 85%; • Level 3: the growth inhibition rate is equal to or greater than 40% and less than 60%; • Level 2: the growth inhibition rate is equal to or greater than 20% and less than 40%; • Level 1: the growth inhibition rate is equal to or greater than 5% and less than 20%; • Level 0: the growth inhibition rate is less than 5%;
(§2) The above described growth inhibition rate is fresh weight inhibition rate.
(§3) Post-emergence test experiment: Monocotyledonous and dicotyledonous weed seeds and main crop seeds (i. e. wheat, corn, rice, soybean, cotton, oilseed, millet and sorghum.) were put into a plastic pot loaded with soil. Then covered with 0.5-2 cm soil, the seeds were allowed to grow in good greenhouse environment. The test plants were treated at 2-3 leaf stage 2 weeks after sowing. The test compounds of the invention were dissolved with acetone respectively, then added with tween-80, and using 1.5 liters per hectare of an emulsible concentrate of methyl oleate as a synergist, and diluted by certain amount of water to certain concentration. The solution was sprayed to the plants with a sprayer. Then the plants were cultured for 3 weeks in the greenhouse, and the experiment result of weed controlling effect after 3 weeks was listed in tables 3-4.

Galium spurium = test system: Galium spurium
From the text: as §1, §2, §3

Monochoria vaginalis = test system: Monochoria vaginalis
From the text: as §1, §2, §3

## CCC(Oc1ncc(Cl)c(N)c1Cl)C(=O)SC (stereo not drawn) [Compound 23]
Abutilon theophrasti
  Activity level (growth inhibition rate) Abutilon theophrasti: 5 (Level 5: the growth inhibition rate is greater than 85%)
Galium spurium
  Activity level (growth inhibition rate) Galium spurium: 5 (Level 5: the growth inhibition rate is greater than 85%)
Monochoria vaginalis
  Activity level (growth inhibition rate) Monochoria Vaginalis: 5 (Level 5: the growth inhibition rate is greater than 85%)

## CCC(Oc1nc(Cl)c(Cl)c(N)c1Cl)C(=O)SC (stereo not drawn) [Compound 24]
Abutilon theophrasti
  Activity level (growth inhibition rate) Abutilon theophrasti: 5 (Level 5: the growth inhibition rate is greater than 85%)
Galium spurium
  Activity level (growth inhibition rate) Galium spurium: 5 (Level 5: the growth inhibition rate is greater than 85%)
Monochoria vaginalis
  Activity level (growth inhibition rate) Monochoria Vaginalis: 5 (Level 5: the growth inhibition rate is greater than 85%)

## CCC(Oc1nc(F)c(Cl)c(N)c1Cl)C(=O)SC (stereo not drawn) [Compound 25]
Abutilon theophrasti
  Activity level (growth inhibition rate) Abutilon theophrasti: 5 (Level 5: the growth inhibition rate is greater than 85%)
Galium spurium
  Activity level (growth inhibition rate) Galium spurium: 5 (Level 5: the growth inhibition rate is greater than 85%)
Monochoria vaginalis
  Activity level (growth inhibition rate) Monochoria Vaginalis: 5 (Level 5: the growth inhibition rate is greater than 85%)

## CCCC(Oc1nc(F)c(Cl)c(N)c1Cl)C(=O)SC (stereo not drawn) [Compound 26]
Abutilon theophrasti
  Activity level (growth inhibition rate) Abutilon theophrasti: 5 (Level 5: the growth inhibition rate is greater than 85%)
Galium spurium
  Activity level (growth inhibition rate) Galium spurium: 5 (Level 5: the growth inhibition rate is greater than 85%)
Monochoria vaginalis
  Activity level (growth inhibition rate) Monochoria Vaginalis: 5 (Level 5: the growth inhibition rate is greater than 85%)

## CSC(=O)C(Oc1nc(F)c(Cl)c(N)c1Cl)C(C)C (stereo not drawn) [Compound 27]
Abutilon theophrasti
  Activity level (growth inhibition rate) Abutilon theophrasti: 5 (Level 5: the growth inhibition rate is greater than 85%)
Galium spurium
  Activity level (growth inhibition rate) Galium spurium: 5 (Level 5: the growth inhibition rate is greater than 85%)
Monochoria vaginalis
  Activity level (growth inhibition rate) Monochoria Vaginalis: 5 (Level 5: the growth inhibition rate is greater than 85%)

## CSC(=O)C(Oc1nc(F)c(Cl)c(N)c1Cl)C1CC1 (stereo not drawn) [Compound 28]
Abutilon theophrasti
  Activity level (growth inhibition rate) Abutilon theophrasti: 5 (Level 5: the growth inhibition rate is greater than 85%)
Galium spurium
  Activity level (growth inhibition rate) Galium spurium: 5 (Level 5: the growth inhibition rate is greater than 85%)
Monochoria vaginalis
  Activity level (growth inhibition rate) Monochoria Vaginalis: 5 (Level 5: the growth inhibition rate is greater than 85%)

## COCC(Oc1nc(F)c(Cl)c(N)c1Cl)C(=O)SC (stereo not drawn) [Compound 29]
Abutilon theophrasti
  Activity level (growth inhibition rate) Abutilon theophrasti: 5 (Level 5: the growth inhibition rate is greater than 85%)
Galium spurium
  Activity level (growth inhibition rate) Galium spurium: 5 (Level 5: the growth inhibition rate is greater than 85%)
Monochoria vaginalis
  Activity level (growth inhibition rate) Monochoria Vaginalis: 5 (Level 5: the growth inhibition rate is greater than 85%)

## COC(C)C(Oc1nc(F)c(Cl)c(N)c1Cl)C(=O)SC (stereo not drawn) [Compound 31]
Abutilon theophrasti
  Activity level (growth inhibition rate) Abutilon theophrasti: 5 (Level 5: the growth inhibition rate is greater than 85%)
Galium spurium
  Activity level (growth inhibition rate) Galium spurium: 5 (Level 5: the growth inhibition rate is greater than 85%)
Monochoria vaginalis
  Activity level (growth inhibition rate) Monochoria Vaginalis: 5 (Level 5: the growth inhibition rate is greater than 85%)

## C=CC(Oc1nc(F)c(Cl)c(N)c1Cl)C(=O)SC (stereo not drawn) [Compound 32]
Abutilon theophrasti
  Activity level (growth inhibition rate) Abutilon theophrasti: 5 (Level 5: the growth inhibition rate is greater than 85%)
Galium spurium
  Activity level (growth inhibition rate) Galium spurium: 5 (Level 5: the growth inhibition rate is greater than 85%)
Monochoria vaginalis
  Activity level (growth inhibition rate) Monochoria Vaginalis: 5 (Level 5: the growth inhibition rate is greater than 85%)

## C#CC(Oc1nc(F)c(Cl)c(N)c1Cl)C(=O)SC (stereo not drawn) [Compound 33]
Abutilon theophrasti
  Activity level (growth inhibition rate) Abutilon theophrasti: 5 (Level 5: the growth inhibition rate is greater than 85%)
Galium spurium
  Activity level (growth inhibition rate) Galium spurium: 5 (Level 5: the growth inhibition rate is greater than 85%)
Monochoria vaginalis
  Activity level (growth inhibition rate) Monochoria Vaginalis: 5 (Level 5: the growth inhibition rate is greater than 85%)

## CSC(=O)C(F)Oc1nc(F)c(Cl)c(N)c1Cl (stereo not drawn) [Compound 34]
Abutilon theophrasti
  Activity level (growth inhibition rate) Abutilon theophrasti: 5 (Level 5: the growth inhibition rate is greater than 85%)
Galium spurium
  Activity level (growth inhibition rate) Galium spurium: 5 (Level 5: the growth inhibition rate is greater than 85%)
Monochoria vaginalis
  Activity level (growth inhibition rate) Monochoria Vaginalis: 5 (Level 5: the growth inhibition rate is greater than 85%)

## CSC(=O)C(Cl)Oc1nc(F)c(Cl)c(N)c1Cl (stereo not drawn) [Compound 35]
Abutilon theophrasti
  Activity level (growth inhibition rate) Abutilon theophrasti: 5 (Level 5: the growth inhibition rate is greater than 85%)
Galium spurium
  Activity level (growth inhibition rate) Galium spurium: 5 (Level 5: the growth inhibition rate is greater than 85%)
Monochoria vaginalis
  Activity level (growth inhibition rate) Monochoria Vaginalis: 5 (Level 5: the growth inhibition rate is greater than 85%)

## CSC(=O)C(Br)Oc1nc(F)c(Cl)c(N)c1Cl (stereo not drawn) [Compound 36]
Abutilon theophrasti
  Activity level (growth inhibition rate) Abutilon theophrasti: 5 (Level 5: the growth inhibition rate is greater than 85%)
Galium spurium
  Activity level (growth inhibition rate) Galium spurium: 5 (Level 5: the growth inhibition rate is greater than 85%)
Monochoria vaginalis
  Activity level (growth inhibition rate) Monochoria Vaginalis: 5 (Level 5: the growth inhibition rate is greater than 85%)

## CSC(=O)C(CCl)Oc1nc(F)c(Cl)c(N)c1Cl (stereo not drawn) [Compound 37]
Abutilon theophrasti
  Activity level (growth inhibition rate) Abutilon theophrasti: 5 (Level 5: the growth inhibition rate is greater than 85%)
Galium spurium
  Activity level (growth inhibition rate) Galium spurium: 5 (Level 5: the growth inhibition rate is greater than 85%)
Monochoria vaginalis
  Activity level (growth inhibition rate) Monochoria Vaginalis: 5 (Level 5: the growth inhibition rate is greater than 85%)

## CSC(=O)C(CF)Oc1nc(F)c(Cl)c(N)c1Cl (stereo not drawn) [Compound 38]
Abutilon theophrasti
  Activity level (growth inhibition rate) Abutilon theophrasti: 5 (Level 5: the growth inhibition rate is greater than 85%)
Galium spurium
  Activity level (growth inhibition rate) Galium spurium: 5 (Level 5: the growth inhibition rate is greater than 85%)
Monochoria vaginalis
  Activity level (growth inhibition rate) Monochoria Vaginalis: 5 (Level 5: the growth inhibition rate is greater than 85%)

## CSC(=O)C(Oc1nc(F)c(Cl)c(N)c1Cl)C(F)F (stereo not drawn) [Compound 39]
Abutilon theophrasti
  Activity level (growth inhibition rate) Abutilon theophrasti: 5 (Level 5: the growth inhibition rate is greater than 85%)
Galium spurium
  Activity level (growth inhibition rate) Galium spurium: 5 (Level 5: the growth inhibition rate is greater than 85%)
Monochoria vaginalis
  Activity level (growth inhibition rate) Monochoria Vaginalis: 5 (Level 5: the growth inhibition rate is greater than 85%)

## CSC(=O)C(CCCl)Oc1nc(F)c(Cl)c(N)c1Cl (stereo not drawn) [Compound 40]
Abutilon theophrasti
  Activity level (growth inhibition rate) Abutilon theophrasti: 5 (Level 5: the growth inhibition rate is greater than 85%)
Galium spurium
  Activity level (growth inhibition rate) Galium spurium: 5 (Level 5: the growth inhibition rate is greater than 85%)
Monochoria vaginalis
  Activity level (growth inhibition rate) Monochoria Vaginalis: 5 (Level 5: the growth inhibition rate is greater than 85%)

## CSC(=O)C(Oc1nc(F)c(Cl)c(N)c1Cl)C(F)(F)F (stereo not drawn) [Compound 41]
Abutilon theophrasti
  Activity level (growth inhibition rate) Abutilon theophrasti: 5 (Level 5: the growth inhibition rate is greater than 85%)
Galium spurium
  Activity level (growth inhibition rate) Galium spurium: 5 (Level 5: the growth inhibition rate is greater than 85%)
Monochoria vaginalis
  Activity level (growth inhibition rate) Monochoria Vaginalis: 5 (Level 5: the growth inhibition rate is greater than 85%)

## CSC(=O)C(CC(F)(F)F)Oc1nc(F)c(Cl)c(N)c1Cl (stereo not drawn) [Compound 42]
Abutilon theophrasti
  Activity level (growth inhibition rate) Abutilon theophrasti: 5 (Level 5: the growth inhibition rate is greater than 85%)
Galium spurium
  Activity level (growth inhibition rate) Galium spurium: 5 (Level 5: the growth inhibition rate is greater than 85%)
Monochoria vaginalis
  Activity level (growth inhibition rate) Monochoria Vaginalis: 5 (Level 5: the growth inhibition rate is greater than 85%)

## CSC(=O)C(C#N)Oc1nc(F)c(Cl)c(N)c1Cl (stereo not drawn) [Compound 43]
Abutilon theophrasti
  Activity level (growth inhibition rate) Abutilon theophrasti: 5 (Level 5: the growth inhibition rate is greater than 85%)
Galium spurium
  Activity level (growth inhibition rate) Galium spurium: 5 (Level 5: the growth inhibition rate is greater than 85%)
Monochoria vaginalis
  Activity level (growth inhibition rate) Monochoria Vaginalis: 5 (Level 5: the growth inhibition rate is greater than 85%)

## CSC(=O)C(CC#N)Oc1nc(F)c(Cl)c(N)c1Cl (stereo not drawn) [Compound 44]
Abutilon theophrasti
  Activity level (growth inhibition rate) Abutilon theophrasti: 5 (Level 5: the growth inhibition rate is greater than 85%)
Galium spurium
  Activity level (growth inhibition rate) Galium spurium: 5 (Level 5: the growth inhibition rate is greater than 85%)
Monochoria vaginalis
  Activity level (growth inhibition rate) Monochoria Vaginalis: 5 (Level 5: the growth inhibition rate is greater than 85%)

## CSC(=O)C(N)Oc1nc(F)c(Cl)c(N)c1Cl (stereo not drawn) [Compound 45]
Abutilon theophrasti
  Activity level (growth inhibition rate) Abutilon theophrasti: 5 (Level 5: the growth inhibition rate is greater than 85%)
Galium spurium
  Activity level (growth inhibition rate) Galium spurium: 5 (Level 5: the growth inhibition rate is greater than 85%)
Monochoria vaginalis
  Activity level (growth inhibition rate) Monochoria Vaginalis: 5 (Level 5: the growth inhibition rate is greater than 85%)

## CSC(=O)C(CN(C)C)Oc1nc(F)c(Cl)c(N)c1Cl (stereo not drawn) [Compound 46]
Abutilon theophrasti
  Activity level (growth inhibition rate) Abutilon theophrasti: 5 (Level 5: the growth inhibition rate is greater than 85%)
Galium spurium
  Activity level (growth inhibition rate) Galium spurium: 5 (Level 5: the growth inhibition rate is greater than 85%)
Monochoria vaginalis
  Activity level (growth inhibition rate) Monochoria Vaginalis: 5 (Level 5: the growth inhibition rate is greater than 85%)
